This note sets out measurements from US7553652B2, “Process for the preparation of (S)- or (R)-3,3,3-trifluoro-2-hydroxy-2-methylpropionic acid” (Lonza AG, priority 1996, dated 2009).

One data set relates to amidohydrolase. Nature of the data set: Enzyme characterization with heat-treated cell-free extract. It counts as biochemical, Klebsiella oxytoca PRS1K17 (DSM 11623). Conditions: for effect of methanol on the amidohydrolase: methanol 5 to 20%, 40 and 60° C., substrate 1% (64 mM), 100 mM CAPS buffer pH 10.0. The procedure: A heat-treated cell-free extract was employed for characterizing the amidase. Cells of Klebsiella oxytoca PRS1K17 (DSM 11623) (OD650=160) were disrupted by passing through a French press at 19000 psi (1309 bar). Benzonase (1 μl×30 ml extract^−1) was added, and the extract was then centrifuged for 1 hour at 20000×g. The supernatant (approx. 20 mg×ml^−1 protein) was heated for 10 minutes at 70° C. and the precipitated protein was then removed by centrifugation. The supernatant (approx. 2.0 mg×ml^−1) was concentrated to 5.0 mg×ml^−1 protein and then stored at −20° C. The heat treatment removed approx. 90% of undesired protein. Up to a protein concentration of 0.5 mg×ml^−1, the reaction rate was in direct proportion to the protein concentration. A protein concentration of 0.2 mg×ml^−1 was therefore routinely employed in the tests. To determine the pH optimum, the concentration of (R,S)-2,2-HTFMPA (substrate) was 0.5% (32 mM) and the temperature was 40° C. The buffers listed in Table 4 were employed in the test.
The effect of the temperature on the reaction was determined in 100 mM CAPS buffer (pH 10.0) at a substrate concentration of 0.5% (32 mM). The effect of the substrate concentration was determined at 60° C. in 100 mM CAPS buffer (pH 10.0), and the effect of methanol at 40 and 60° C. at a substrate concentration of 1% (64 mM) in 100 mM CAPS buffer (pH 10.0). […] The temperature optimum is 70° C. […] 10.4 Enzyme Immobilization

Data set [1] is described as follows: Activity and stability of enzyme immobilized on Eupergit C. The data set is classed as biochemical, Klebsiella oxytoca. Conditions: 60° C., 4% racemic amide in 100 mM CAPS buffer (pH 10). On the procedure: The heat-treated cell-free extract was immobilized using Eupergit C (Röhm GmbH). To this end, Eupergit C (3.0 g) was added to 15 ml of heat-treated cell-free extract (protein concentration: 51 mg) in 1 M potassium phosphate buffer (pH 8.0). The mixture was incubated for 90 hours at room temperature with gentle stirring. The immobilized enzyme was filtered off and washed 4 times with 20 ml of 100 mM potassium phosphate buffer (pH 8.0). Support-bound enzyme (49 mg) gave 9.5 g of immobilized enzyme (fresh weight), which was stored in 100 mM potassium phosphate buffer (pH 10.0) at 4° C. To test the activity and stability of the immobilized enzyme, a small chromatography column was loaded with 5 g (25 mg of protein). A peristaltic pump (0.135 ml×min^−1) was used to circulate the substrate (100 ml 4% racemic amide in 100 mM CAPS buffer (pH 10)) between column and reservoir. The entire process was carried out in a water bath. At certain intervals, samples were taken for analysis. […] Three biotransformations (each with 4 g of racemic substrate, the first having been carried out at 60° C. and the remaining two at 40° C.) gave a total of 6 g of (S)-amide.

A word on the Km: it is the substrate concentration at which the rate is half of its maximum.

With `C[C@@](O)(C(N)=O)C(F)(F)F` [(R)-2,2-HTFMPA, 3,3,3-trifluoro-2-hydroxy-2-methyl-propionamide], the Km in the data set with amidohydrolase (60° C. in 100 mM CAPS buffer, pH 10) amounted to 32 mM. For the molecule `CO` [methanol], the “effect of methanol on the amidohydrolase” value with amidohydrolase is given as “inhibitory effect”; in the data set with amidohydrolase (listed as Methanol), “inhibit the reaction”.

B1: amidohydrolase: (R)-stereospecific amidohydrolase from Klebsiella oxytoca PRS1/PRS1K17, SEQ ID No. 2; tested as heat-treated cell-free extract (protein, listed as Klebsiella oxytoca)
chain: MKWLEESIMAKRGVGAGRKPVTHHLTEEMQKEFHYTIGPYSTPVLTIEPGDRIIVDTRDAFEGAINSEQDIPSQLLKMPFLNPQNGPIMVNGAEKGDVLAVYIESMLPRGVDPYGICAMIPHFGGLTGTDLTAMLNDPLPEKVRMIKLDSEKVYWSKRHTLPYKPHIGTLSVSPEIDSINSLTPDNHGGNMDVPDIGPGSITYPLVRAPGGRLFIGDAHACQGDGEICGTAVEFASITTIKVDLIKNWQLSWPRMENAENIMSIGSARPLEDATRIAYRDLIYWLVEDFGFEQWDAYMLLSQCGKVRLGNMVDPKYTVGAMLNKNLLV
In data set [1], B1 displayed a specific activity of 114 μg×min^−1×mg protein^−1.
